Source: patent US12707888B2, “Asymmetric donor-acceptor molecular dyes” (THE UNIVERSITY OF NORTH CAROLINA AT CHARLOTTE, priority 2019, dated 2026)

Key:
[1] = in cyclohexane; cited from earlier work
[2] = Lippert-Mataga analysis of excited state dipole moments; assay type: physicochemical; settings: semi-empirically calculated using the Lippert-Mataga equation
Method: The calculated HOMOs/LUMOs indicate that the strong solvatofluorochromism arises from an ICT mechanism, whereby the ground state has significant electron localization on the donor side of the molecule whereas the electron density shifts to the acceptor moiety in the excited state. To more directly quantify the strong ICT character of the TTz dyes, the excited-state dipole moments were calculated using the Lippert-Mataga equation (Eq 1):
[formula] where va and vf are the wavenumbers of the absorption and emission peaks in cm^−1, respectively; μ* and μ are the excited state and ground state dipoles, respectively; ϵ0 is the vacuum permittivity, h is Planck's constant, c is the speed of light, a is the Onsager cavity radius, Δf is the orientation polarizability, ϵ is the relative permittivity, and η is the refractive index. The dipoles were calculated using Spartan 2016 software, and the Onsager cavity radii were calculated using Gaussian '09 software.
FIGS. 9A and 9B show the Stokes shift of Bu2N-TTz-Py and Ph2N-TTz-COOH versus Δf, respectively. From the slopes of the Lippert-Mataga plots, the change between the dipole moments of the ground and excited states can be determined. Even though the Lippert-Mataga equation assumes no specific solvent-solute interactions (e.g. hydrogen bonding) and ignores solute polarizability, high degrees of linearity are apparent; and therefore, the estimations of the excited state dipoles are regarded as reliable. […] Perhaps owing to the minimal solvent interactions and rapid vibrational relaxation, the estimated changes in dipole moments (Δμ) are remarkably large (Table IV). […] Therefore, it is expected that these asymmetric TTzs dyes would be well suited to give high sensitivity in sensing applications whereby small changes in the polarity of the environment can lead to large differences in the wavelengths of fluorescence.

[3] = UV-Vis absorbance, fluorescence emission and quantum yield in organic solvents; assay type: physicochemical; settings: for peak absorbance λmax, abs: in DCM
Method: The absorption, emission, and fluorescence lifetime characteristics of all four TTz dyes were recorded in a variety of organic solvents (FIGS. 7A-7B, Table of FIG. 8). Additionally, HOMO/LUMO levels of the TTz dyes were determined computationally in Spartan 16 using B3LYP/6-31g. Molar absorptivities of all the TTz dyes ranged from 13,000 to 86,000 cm^−1M^−1. […] However, the peak absorbance of Bu2N-TTz-Py in DCM was slightly red-shifted as compared to that of Ph2N-TTz-Py (λmax, abs=429 nm vs λmax, abs=422 nm in DCM), which is attributed to the diphenylamine moiety having weaker donor characteristics. […] Due to the low estimated ground state dipole moments of the TTz dyes (μ=6-8 D), their wavelengths of absorbance remained relatively solvent independent (st. dev.=±11 nm).
4-pyridine carboxaldehyde, 4-(dibutylamino)benzaldehyde, 4-(diphenylamino)benzaldehyde, terephthalaldehyde, dithiooxamide, and all solvents used for spectroscopic measurements were purchased from Sigma-Aldrich and used without further purification. ^1H and ^13CNMR measurements were obtained with either a JEOL 300 MHz NMR or a JEOL 500 MHz NMR. High resolution mass spectra were obtained using a Thermo Fisher Scientific MSQ Plus Single Quadrupole Mass Spectrometer. Solution-state UV-Vis spectra were collected on a Cary 300 UV-Vis spectrophotometer. Time-resolved measurements were taken on a Jobin Yvon-Spex Fluorolog equipped with a 389 nm diode laser for time-resolved PL decay measurements. Igor Pro 6.3 software was used to fit PL(t) decay data to single/multiple exponential decays. Quantum yields were calculated using 9,10-diphenylanthracene as a reference (quantum yield [ΦF] in cyclohexane=0.97).^40-41 Density functional theory (DFT) calculations were performed with Spartan computational software using B3LYP^42-43 density functional and 6-31G*^44 basis set. Temperature studies were conducted using a 10 μM Bu2N-TTz-Py MeTHF solution placed inside of a Norrell 502 NMR tube and sequentially submerged in the following liquid N2 baths:octanol (−16° C.), acetonitrile (−41° C.), acetone (−94° C.), pentane (−131° C.), MeTHF (−136° C.), and liquid N2 itself (−196° C.). The phosphorescence spectrum of Bu2N-TTz-Py (see S2) was collected similarly at −196° C. by pumping with 389 nm light while inside a liquid nitrogen bath and then probing the emission within 2 sec of removing from the bath. Human embryonic kidney cells (HEK 293T) were a kind gift from Prof. Bryan Dickinson, and Mouse macrophage J774A.1 cells were a kind gift from Prof. Deborah Nelson at the University of Chicago. Cells were cultured in Dulbecco's Modified Eagle's Medium (Invitrogen Corporation, USA) containing 10% heat inactivated Fetal Bovine Serum (FBS) (Invitrogen Corporation, USA), 100 U/mL penicillin, and 100 μg/mL streptomycin. Cells were maintained at 37° C. under 5% CO2.

[4] = TCSPC fluorescence lifetime in solvents; assay type: physicochemical
Text: TCSPC measurements of the TTz dyes show a general upward trend for fluorescent lifetimes as the polarity increases in aprotic solvents—from 1.50-1.89 ns in nonpolar solvents to ~3.00 ns in polar, aprotic solvents (Table of FIG. 8). The fluorescence lifetimes in protic solvents have the opposite trend; that is, a decrease in the fluorescence lifetime as the polarity increases (e.g. for Ph2N-TTz-COOH: τf, iPrOH=2.40 ns, τf, MeOH=1.80 ns). The trend reversal in the fluorescence lifetime can most likely be attributed to the presence of hydrogen bonding in protic solvents. […] At the same time, the non-radiative rates of each TTz generally increases as solvent polarity increases. […] Regardless, the fact that the fluorescence lifetimes are solvent dependent opens up the possibility of using these TTz dyes for measuring micelle formation and viscosity in living cells using fluorescence lifetime imaging (FLIM).
4-pyridine carboxaldehyde, 4-(dibutylamino)benzaldehyde, 4-(diphenylamino)benzaldehyde, terephthalaldehyde, dithiooxamide, and all solvents used for spectroscopic measurements were purchased from Sigma-Aldrich and used without further purification. ^1H and ^13CNMR measurements were obtained with either a JEOL 300 MHz NMR or a JEOL 500 MHz NMR. High resolution mass spectra were obtained using a Thermo Fisher Scientific MSQ Plus Single Quadrupole Mass Spectrometer. […]

Change in Dipole Δμ [2] [D]	Excited State Dipole μ* [2] [D]	peak absorbance λmax, abs [3] [nm]	fluorescence lifetime τf, MeOH ([4]; MeOH) [ns]	fluorescence lifetime τf, iPrOH ([4]; iPrOH) [ns]	largest Stokes shift ([3]; largest across solvents) [eV]	SMILES	quantum yield [ΦF] of reference [1]
–	–	–	–	–	–	c1ccc(-c2c3ccccc3c(-c3ccccc3)c3ccccc23)cc1 [9,10-diphenylanthracene]	0.97
18.0	24.9	434	–	–	–	O=Cc1ccc(-c2nc3sc(-c4ccc(N(c5ccccc5)c5ccccc5)cc4)nc3s2)cc1 [Ph2N-TTz-CHO, 2-(N,N-diphenyl-4-aminophenyl)-5-(4-formylphenyl) thiazolo[5,4-d]thiazole]	–
13.0	21.3	–	1.80	2.40	–	O=C(O)c1ccc(-c2nc3sc(-c4ccc(N(c5ccccc5)c5ccccc5)cc4)nc3s2)cc1 [Ph2N-TTz-COOH, 2-(N,N-diphenyl-4-aminophenyl)-5-(4-carboxyphenyl) thiazolo[5,4-d]thiazole]	–
14.6	20.8	422	–	–	0.750	c1ccc(N(c2ccccc2)c2ccc(-c3nc4sc(-c5ccncc5)nc4s3)cc2)cc1 [Ph2N-TTz-Py, 2-(N,N-diphenyl-4-aminophenyl)-5-(4-pyridyl) thiazolo[5,4-d]thiazole]	–
